Assay results taken from ChEMBL document CHEMBL1201862, “PubChem BioAssay data set” (2004).
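Where inhibition never reached the appropriate level, the endpoint shown equals the highest concentration tested. Otherwise, values were interpolated linearly from a five-concentration, 48-hour dose response in 96-well plates. GI50 is the concentration that inhibits growth by half.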 Activity calls are given as the source filed them. Cut-off read from the data, not from the text of the source: active = GI50 up to about 1.1 µM and inactive = higher.

Key:
Experiment in all cases: NCI anticancer screen, dose series, 48 h
NCI-H226 = tested on: NCI-H226
HCC 2998 = tested on: HCC 2998
SK-OV-3 = tested on: SK-OV-3
IGROV-1 = tested on: IGROV-1
SNB-75 = tested on: SNB-75
BT-549 = tested on: BT-549
UO-31 = tested on: UO-31
A498 = tested on: A498
CAKI-1 = tested on: CAKI-1
ACHN = tested on: ACHN
PC-3 = tested on: PC-3
SW-620 = tested on: SW-620
OVCAR-8 = tested on: OVCAR-8
Hs-578T = tested on: Hs-578T
M14 = tested on: M14
NCI-H460 = tested on: NCI-H460
NCI/ADR-RES = tested on: NCI/ADR-RES
RXF 393 = tested on: RXF 393
MDA-MB-231 = tested on: MDA-MB-231
SF-539 = tested on: SF-539

Measured: GI50

Cc1cn(C2OC(CO)C(O)C2F)c(=O)[nH]c1=O (centres undefined)
inactive: NCI-H226 > 100 µM | HCC 2998 > 100 µM | SK-OV-3 > 100 µM | IGROV-1 > 100 µM | SNB-75 > 100 µM | BT-549 87.1 µM | UO-31 > 100 µM | A498 > 100 µM | CAKI-1 > 100 µM | ACHN 89.7 µM | PC-3 > 100 µM | SW-620 > 100 µM | OVCAR-8 > 100 µM | Hs-578T > 100 µM | M14 41.8 µM | NCI-H460 21.7 µM | NCI/ADR-RES 64 µM | RXF 393 43 µM | MDA-MB-231 > 100 µM | SF-539 > 100 µM

COC(=O)C1=NN2c3ccccc3C(=O)OCCC2C1 (centres undefined)
inactive: NCI-H226 > 100 µM | HCC 2998 > 100 µM | SK-OV-3 > 100 µM | IGROV-1 71.9 µM | SNB-75 > 100 µM | BT-549 > 100 µM | UO-31 > 100 µM | A498 > 100 µM | CAKI-1 > 100 µM | ACHN > 100 µM | PC-3 > 100 µM | SW-620 > 100 µM | OVCAR-8 > 100 µM | Hs-578T > 100 µM | NCI-H460 > 100 µM | NCI/ADR-RES > 100 µM | RXF 393 > 100 µM | MDA-MB-231 > 100 µM | SF-539 > 100 µM

C[C@]12CC(c3ccccc3O1)C(C(=O)NC13CC4CC(CC(C4)C1)C3)C(=O)N2 (some centres undefined)
inactive: NCI-H226 23.6 µM | HCC 2998 29 µM | SK-OV-3 64.9 µM | IGROV-1 31.4 µM | SNB-75 27.5 µM | BT-549 28.1 µM | UO-31 20 µM | A498 39.9 µM | CAKI-1 38.6 µM | ACHN 34.1 µM | PC-3 32.1 µM | SW-620 46.3 µM | OVCAR-8 26.6 µM | Hs-578T 55.7 µM | M14 15.6 µM | NCI-H460 35.4 µM | NCI/ADR-RES 20.3 µM | RXF 393 25.6 µM | MDA-MB-231 34.4 µM

COC(=O)C(=O)C(C(=O)C(=O)Nc1ccc(Cl)c(Cl)c1)c1nc2ccc(C(=O)c3ccccc3)cc2nc1O (centres undefined)
inactive: NCI-H226 56.4 µM | SK-OV-3 97.3 µM | IGROV-1 33.5 µM | SNB-75 28.3 µM | BT-549 > 100 µM | UO-31 26.4 µM | A498 > 100 µM | CAKI-1 22.5 µM | ACHN 46.5 µM | PC-3 38.1 µM | SW-620 46.9 µM | OVCAR-8 40.6 µM | Hs-578T 22.1 µM | M14 67.3 µM | NCI/ADR-RES 33.6 µM | RXF 393 38.4 µM | MDA-MB-231 51.3 µM | SF-539 62.2 µM

N=c1oc2cc(O)ccc2cc1C(=O)Nc1cccc2ccccc12
inactive: NCI-H226 5.92 µM | HCC 2998 3.71 µM | SK-OV-3 6.65 µM | IGROV-1 3.27 µM | SNB-75 3.54 µM | BT-549 2.43 µM | UO-31 4.7 µM | A498 5.25 µM | CAKI-1 5.97 µM | ACHN 3.99 µM | PC-3 3.05 µM | SW-620 3.4 µM | OVCAR-8 4.78 µM | Hs-578T 2.94 µM | M14 7 µM | NCI-H460 4.02 µM | NCI/ADR-RES 1.82 µM | RXF 393 4.91 µM | MDA-MB-231 3.06 µM

O=[N+]([O-])C(=C(N1CCOCC1)N1CCOCC1)/C(Cl)=C(\Cl)Br
inactive: NCI-H226 27.6 µM | HCC 2998 > 100 µM | SNB-75 17.5 µM | BT-549 13.3 µM | UO-31 18.4 µM | A498 37.4 µM | ACHN 24.8 µM | PC-3 35 µM | SW-620 15.5 µM | OVCAR-8 24.1 µM | Hs-578T > 100 µM | M14 13.4 µM | NCI-H460 > 100 µM | NCI/ADR-RES 22.2 µM | MDA-MB-231 17.9 µM | SF-539 24.3 µM

CC(C)Cn1cnnc1NS(=O)(=O)c1cc(C(=O)NN)c(Cl)cc1S
inactive: NCI-H226 > 10 µM | HCC 2998 > 10 µM | SK-OV-3 > 10 µM | IGROV-1 > 10 µM | SNB-75 > 10 µM | BT-549 > 10 µM | A498 > 10 µM | CAKI-1 > 10 µM | ACHN > 10 µM | PC-3 > 10 µM | SW-620 > 10 µM | OVCAR-8 > 10 µM | Hs-578T > 10 µM | M14 > 10 µM | NCI-H460 > 10 µM | NCI/ADR-RES > 10 µM | RXF 393 > 10 µM | MDA-MB-231 > 10 µM | SF-539 > 10 µM

OC1(c2ccccc2)C2CC=CC2C1(c1ccccc1)c1ccccc1 (centres undefined)
inactive: HCC 2998 19.8 µM | SK-OV-3 38.9 µM | IGROV-1 20.1 µM | SNB-75 34.1 µM | BT-549 30.3 µM | UO-31 31.1 µM | A498 15.8 µM | CAKI-1 17.1 µM | ACHN 43.5 µM | PC-3 42.6 µM | SW-620 30.2 µM | OVCAR-8 40.2 µM | Hs-578T 38.3 µM | M14 32.7 µM | NCI-H460 27 µM | NCI/ADR-RES 44.3 µM | RXF 393 16.7 µM | MDA-MB-231 40.6 µM | SF-539 77.1 µM
